Assay results from ChEMBL document CHEMBL1201862, “PubChem BioAssay data set” (2004).
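48-hour exposure; five concentrations; linearly interpolated endpoints. GI50 is the concentration that inhibits growth by half.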 Calls of active or inactive are those of the source. Cut-off read from the data, not from the text of the source: active = GI50 up to about 1.1 µM and inactive = higher.

Assays:
Test in all cases: DTP human tumour cell line panel, 48 h
SNB-75 = tested on: SNB-75
MCF7 = tested on: MCF7
A498 = tested on: A498
UACC-62 = tested on: UACC-62
OVCAR-5 = tested on: OVCAR-5
HOP-62 = tested on: HOP-62
NCI/ADR-RES = tested on: NCI/ADR-RES
MDA-MB-435 = tested on: MDA-MB-435
NCI-H226 = tested on: NCI-H226
CCRF-CEM = tested on: CCRF-CEM
NCI-H522 = tested on: NCI-H522
SNB-19 = tested on: SNB-19
OVCAR-8 = tested on: OVCAR-8
EKVX = tested on: EKVX
COLO 205 = tested on: COLO 205
SR = tested on: SR
SW-620 = tested on: SW-620
MDA-N = tested on: MDA-N
HCT-116 = tested on: HCT-116
SK-MEL-5 = tested on: SK-MEL-5
SF-268 = tested on: SF-268
NCI-H23 = tested on: NCI-H23
UO-31 = tested on: UO-31
HT-29 = tested on: HT-29
A549 = tested on: A549
Hs-578T = tested on: Hs-578T
U-251 = tested on: U-251
KM12 = tested on: KM12
MDA-MB-231 = tested on: MDA-MB-231
DU-145 = tested on: DU-145
T47D = tested on: T47D
Malme-3M = tested on: Malme-3M
SK-MEL-28 = tested on: SK-MEL-28
SK-MEL-2 = tested on: SK-MEL-2
NCI-H460 = tested on: NCI-H460
HCT-15 = tested on: HCT-15
RPMI-8226 = tested on: RPMI-8226
CAKI-1 = tested on: CAKI-1
HL-60 = tested on: HL-60
UACC-257 = tested on: UACC-257
IGROV-1 = tested on: IGROV-1
MOLT-4 = tested on: MOLT-4
K562 = tested on: K562
TK-10 = tested on: TK-10
SF-295 = tested on: SF-295
786-0 = tested on: 786-0
RXF 393 = tested on: RXF 393
PC-3 = tested on: PC-3
LOX IMVI = tested on: LOX IMVI
M14 = tested on: M14
HOP-92 = tested on: HOP-92
OVCAR-4 = tested on: OVCAR-4
ACHN = tested on: ACHN
SF-539 = tested on: SF-539
OVCAR-3 = tested on: OVCAR-3
SN12C = tested on: SN12C
BT-549 = tested on: BT-549
SK-OV-3 = tested on: SK-OV-3

`CCCN(CCC)C(=O)c1c(N2CCN(C)CC2)c2cccnc2n2c(C)cnc12` was tested, and the GI50 (SNB-75) was > 100 µM (inactive), the GI50 (MCF7) was > 100 µM (inactive) and the GI50 (A498) was 78.5 µM (inactive). For the same compound, the GI50 (UACC-62) was > 100 µM (inactive), the GI50 (OVCAR-5) was > 100 µM (inactive) and the GI50 (HOP-62) was > 100 µM (inactive). The GI50 (NCI/ADR-RES) was > 100 µM (inactive), the GI50 (MDA-MB-435) was > 100 µM (inactive) and the GI50 (NCI-H226) was > 100 µM (inactive). For the same compound, the GI50 (CCRF-CEM) was > 100 µM (inactive), the GI50 (NCI-H522) was 33.1 µM (inactive) and the GI50 (SNB-19) was 27.5 µM (inactive). For the same compound, the GI50 (OVCAR-8) was > 100 µM (inactive), the GI50 (EKVX) was > 100 µM (inactive) and the GI50 (COLO 205) was > 100 µM (inactive). The GI50 (SR) was 39.5 µM (inactive), the GI50 (SW-620) was 17.5 µM (inactive) and the GI50 (MDA-N) was > 100 µM (inactive). For the same compound, the GI50 (HCT-116) was > 100 µM (inactive), the GI50 (SK-MEL-5) was > 100 µM (inactive) and the GI50 (SF-268) was > 100 µM (inactive). The GI50 (NCI-H23) was > 100 µM (inactive), the GI50 (UO-31) was 70 µM (inactive) and the GI50 (HT-29) was > 100 µM (inactive). The GI50 (A549) was > 100 µM (inactive), the GI50 (Hs-578T) was > 100 µM (inactive) and the GI50 (U-251) was > 100 µM (inactive). For the same compound, the GI50 (KM12) was > 100 µM (inactive), the GI50 (MDA-MB-231) was > 100 µM (inactive) and the GI50 (DU-145) was > 100 µM (inactive). For the same compound, the GI50 (T47D) was 14.8 µM (inactive), the GI50 (Malme-3M) was > 100 µM (inactive) and the GI50 (SK-MEL-28) was > 100 µM (inactive). The GI50 (SK-MEL-2) was > 100 µM (inactive), the GI50 (NCI-H460) was > 100 µM (inactive) and the GI50 (HCT-15) was greater than 100 µM. For the same compound, the GI50 (RPMI-8226) was > 100 µM (inactive), the GI50 (CAKI-1) was 60.8 µM (inactive) and the GI50 (HL-60) was > 100 µM (inactive). For the same compound, the GI50 (UACC-257) was > 100 µM (inactive), the GI50 (IGROV-1) was > 100 µM (inactive) and the GI50 (MOLT-4) was 85.9 µM (inactive). For the same compound, the GI50 (K562) was > 100 µM (inactive), the GI50 (TK-10) was > 100 µM (inactive) and the GI50 (SF-295) was > 100 µM (inactive). The GI50 (786-0) was > 100 µM (inactive), the GI50 (RXF 393) was 24.8 µM (inactive) and the GI50 (PC-3) was > 100 µM (inactive). For the same compound, the GI50 (LOX IMVI) was > 100 µM (inactive), the GI50 (M14) was > 100 µM (inactive) and the GI50 (HOP-92) was > 100 µM (inactive). For the same compound, the GI50 (OVCAR-4) was > 100 µM (inactive), the GI50 (ACHN) was > 100 µM (inactive) and the GI50 (SF-539) was > 100 µM (inactive). For the same compound, the GI50 (OVCAR-3) was 94.8 µM (inactive) and the GI50 (SN12C) was > 100 µM (inactive).
In the case of `COc1ccccc1C1c2cc3c(cc2OC(N2CCOCC2)C1C)OCO3` (stereo unspecified), the GI50 (MCF7) is reported as 23.6 µM (inactive), the GI50 (UACC-62) is reported as 14.7 µM (inactive) and the GI50 (OVCAR-5) is reported as 16.4 µM (inactive). The GI50 (HOP-62) was 17.8 µM (inactive), the GI50 (NCI/ADR-RES) was 22.9 µM (inactive) and the GI50 (MDA-MB-435) was 8.04 µM (inactive). For the same compound, the GI50 (CCRF-CEM) was 13.2 µM (inactive), the GI50 (NCI-H522) was 12.7 µM (inactive) and the GI50 (SNB-19) was 14 µM (inactive). For the same compound, the GI50 (OVCAR-8) was 28.3 µM (inactive), the GI50 (EKVX) was 20.6 µM (inactive) and the GI50 (COLO 205) was > 10 µM (inactive). The GI50 (SR) was 15.8 µM (inactive), the GI50 (SW-620) was 17.7 µM (inactive) and the GI50 (MDA-N) was 10.5 µM (inactive). The GI50 (HCT-116) was 12.4 µM (inactive), the GI50 (SK-MEL-5) was 15.4 µM (inactive) and the GI50 (SF-268) was 16.1 µM (inactive). For the same compound, the GI50 (NCI-H23) was 19.8 µM (inactive), the GI50 (UO-31) was 15.9 µM (inactive) and the GI50 (HT-29) was 16.9 µM (inactive). The GI50 (A549) was 17.3 µM (inactive), the GI50 (Hs-578T) was 13.2 µM (inactive) and the GI50 (KM12) was 16.4 µM (inactive). The GI50 (DU-145) was 18.5 µM (inactive), the GI50 (T47D) was 13.2 µM (inactive) and the GI50 (SK-MEL-28) was 15.6 µM (inactive). For the same compound, the GI50 (SK-MEL-2) was 17.7 µM (inactive), the GI50 (NCI-H460) was 16.6 µM (inactive) and the GI50 (HCT-15) was 16.7 µM. For the same compound, the GI50 (RPMI-8226) was 16.2 µM (inactive), the GI50 (UACC-257) was 15.8 µM (inactive) and the GI50 (IGROV-1) was 27.2 µM (inactive). For the same compound, the GI50 (MOLT-4) was 17.1 µM (inactive), the GI50 (K562) was 7.85 µM (inactive) and the GI50 (TK-10) was 22 µM (inactive). The GI50 (SF-295) was 13.5 µM (inactive), the GI50 (786-0) was 18.9 µM (inactive) and the GI50 (PC-3) was 21.5 µM (inactive). For the same compound, the GI50 (LOX IMVI) was 16.7 µM (inactive), the GI50 (M14) was 17.5 µM (inactive) and the GI50 (ACHN) was 26.2 µM (inactive). The GI50 (SF-539) was 14.2 µM (inactive), the GI50 (OVCAR-3) was 13 µM (inactive) and the GI50 (SN12C) was 17.7 µM (inactive).
For `Sc1nnc(CCCCCCCCc2nnc(S)o2)o1`, the GI50 (SNB-75) was > 100 µM (inactive), the GI50 (MCF7) was > 100 µM (inactive) and the GI50 (A498) was > 100 µM (inactive). The GI50 (OVCAR-5) was > 100 µM (inactive), the GI50 (HOP-62) was > 100 µM (inactive) and the GI50 (NCI/ADR-RES) was > 100 µM (inactive). For the same compound, the GI50 (MDA-MB-435) was > 100 µM (inactive), the GI50 (BT-549) was > 100 µM (inactive) and the GI50 (NCI-H226) was > 100 µM (inactive). The GI50 (CCRF-CEM) was > 100 µM (inactive), the GI50 (SNB-19) was > 100 µM (inactive) and the GI50 (OVCAR-8) was > 100 µM (inactive). The GI50 (EKVX) was > 100 µM (inactive), the GI50 (COLO 205) was > 100 µM (inactive) and the GI50 (SW-620) was > 100 µM (inactive). For the same compound, the GI50 (MDA-N) was > 100 µM (inactive), the GI50 (HCT-116) was > 100 µM (inactive) and the GI50 (SK-MEL-5) was > 100 µM (inactive). For the same compound, the GI50 (SF-268) was > 100 µM (inactive), the GI50 (NCI-H23) was > 100 µM (inactive) and the GI50 (UO-31) was > 100 µM (inactive). For the same compound, the GI50 (HT-29) was > 100 µM (inactive), the GI50 (A549) was > 100 µM (inactive) and the GI50 (SK-OV-3) was > 100 µM (inactive). The GI50 (U-251) was > 100 µM (inactive), the GI50 (KM12) was > 100 µM (inactive) and the GI50 (MDA-MB-231) was > 100 µM (inactive). The GI50 (DU-145) was > 100 µM (inactive), the GI50 (SK-MEL-28) was > 100 µM (inactive) and the GI50 (SK-MEL-2) was > 100 µM (inactive). The GI50 (NCI-H460) was > 100 µM (inactive), the GI50 (HCT-15) was greater than 100 µM and the GI50 (CAKI-1) was > 100 µM (inactive). For the same compound, the GI50 (HL-60) was > 100 µM (inactive), the GI50 (UACC-257) was > 100 µM (inactive) and the GI50 (IGROV-1) was > 100 µM (inactive). For the same compound, the GI50 (MOLT-4) was > 100 µM (inactive), the GI50 (K562) was > 100 µM (inactive) and the GI50 (TK-10) was > 100 µM (inactive). For the same compound, the GI50 (SF-295) was > 100 µM (inactive), the GI50 (786-0) was > 100 µM (inactive) and the GI50 (RXF 393) was > 100 µM (inactive). The GI50 (PC-3) was > 100 µM (inactive), the GI50 (LOX IMVI) was > 100 µM (inactive) and the GI50 (M14) was > 100 µM (inactive). The GI50 (OVCAR-4) was > 100 µM (inactive), the GI50 (ACHN) was > 100 µM (inactive) and the GI50 (SF-539) was > 100 µM (inactive). The GI50 (OVCAR-3) was > 100 µM (inactive) and the GI50 (SN12C) was > 100 µM (inactive).
